Source: US20210251228A1, “METHODS FOR REPELLING DROSOPHILA SPECIES USING 2-PENTYLFURAN” (The United States of America, as represented by the …, priority 2020, published 2021)

Experiments:
[1] = tested on: Drosophila suzukii; test: Multiple-choice bioassay: EAD-active compound added to 4-component SWD lure in gated cup traps; type: in vivo
Procedure: Multiple-Choice Bioassay: The multiple choice assay (N=8) was conducted with an arena design using a dome cage (60 cm W×60 cm L×60 cm H; BugDorm-2120 Insect tent; shop.bugdorm.com) as described in Cha et al. 2018b (Cha, D. H., et al., Environ. Entomol., 47: 946-950 (2018b)) to evaluate the effect of the individual EAD-active compounds (FIG. 1) on SWD attraction to previously identified 4-component SWD lure (Cha et al. 2012; Cha, D. H., et al., Pest Manag. Sci., 70: 324-331 (2014); Cha, D. H., et al., Environ. Entomol., 46: 907-915 (2017)). Among 18 EAD-active compounds in FIG. 1, acetoin, 1-hexanol, isoamyl acetate, 2-methylbutyl acetate, and 2-phenylethanol were previously tested for their behavioral effects (Cha et al. 2012, 2014) and not considered in this study. Therefore, we compared 13 EAD-active compounds in this study. Within each arena, 14 traps were positioned in a circle (40 cm diameter) at equal distance with each trap 9 cm apart along the circumference. We used an aluminum foil-covered 100-ml glass beaker with a cut centrifuge vial (0.7 cm diameter) inserted in the foil for SWD entry, as a trap (Cha et al. 2012). All 14 traps had the SWD lure comprised of acetic acid, ethanol, acetoin, and methionol. Acetic acid and ethanol were released from a 20 ml solution of 4% acetic acid+8% ethanol with soap, presented as a drowning solution in each trap. Acetoin (1 ml of 50% acetoin in water) and methionol (0.5 ml neat methionol) were individually released from two 1.5-ml vials with 3-mm hole on the lid with a piece of cotton as described in Cha et al. 2014. One of these 14 traps served as a control (with the 4-component SWD lure only) and the remaining 13 traps had one of the 13 EAD-active compounds added to the SWD-lure, loaded as described in Cha et al. 2012 and released from a 1.5-ml vial with 3-mm hole with a piece of cotton. […] The number of flies inside treatment and control traps was counted after 20 h.
Statistical Analyses: Trap catch data from multiple-choice assay and two-choice assay were analyzed in a randomized block design with block as a random factor and different EAD-active compounds as a fixed factor using Poisson distribution with log link function and maximum likelihood estimation (Proc Glimmix, SAS Institute, SAS/STAT 9.2 User's Guide, Second Edition, 2009, SAS Institute Inc., Cary, N.C.). Oviposition data from (1) laboratory dose-response test, (2) semi-field cage choice test, and (3) first and second field experiments were also analyzed in a randomized block design with block as a random factor and different 2-pentylfuran treatments as a fixed factor using Poisson distribution with log link function and maximum likelihood estimation. […]

[2] = tested on: Drosophila suzukii; test: Field test 1: unknown release rate of 2-pentylfuran, SWD oviposition on field raspberries; type: in vivo; details: 0.5 ml 50% 2-pentylfuran in mineral oil in vial, 3 days, N=16
Procedure: Field Test 1: Effect of Unknown Release Rate of 2-Pentylfuran on SWD Oviposition. The objective of this field test was to confirm the repellent activity of 2-pentylfuran under field conditions. This experiment was conducted using a mixed variety planting of fall-bearing raspberries (primocane raspberries) at Cornell AgriTech in Geneva, N.Y. where we randomly assigned 32 fruiting clusters to one of two treatments: 1.5 ml centrifuge vial with 3 mm hole in lid and containing 0.5 ml 50% 2-pentylfuran in 1:1 ratio with mineral oil or vial with mineral oil only (similar to Wallingford et al. 2016a). After three days we collected ripe raspberries from each cluster and monitored SWD emergence over the 2 weeks in the laboratory (25 C, 55% RH, 16:8 L:D).
Statistical Analyses: Trap catch data from multiple-choice assay and two-choice assay were analyzed in a randomized block design with block as a random factor and different EAD-active compounds as a fixed factor using Poisson distribution with log link function and maximum likelihood estimation (Proc Glimmix, SAS Institute, SAS/STAT 9.2 User's Guide, Second Edition, 2009, SAS Institute Inc., Cary, N.C.). […]

## CCCCCc1ccco1 [2-pentylfuran]
[1]; SWD lure + 2-pentylfuran vs SWD lure only (62 SWD/trap)
  reduction of trap catches of SWD: 98%
[1]; multiple-choice, 20 h, N=8
  negative effect on SWD attraction to the SWD lure compared with 1-octen-3-ol: significantly stronger than 1-octen-3-ol
[1]; one compound added to SWD lure, 14 traps per arena, flies counted after 20 h, N=8
  effect on SWD attraction to (catch in traps baited with) the 4-component SWD lure: greatest reduction
[1]; trap with SWD lure + 2-pentylfuran, 20 h
  trap catch of SWD: 1 SWD/trap
[2]
  reduction of number of eggs per raspberry fruit: 30%
